# In ChEMBL document CHEMBL1933003, “Cytotoxic esterified diterpenoid alkaloid derivatives with increased selectivity against a drug-resistant cancer cell line” (Bioorg Med Chem Lett, 2012):
# Legend:
# [1] = test system: A549; experiment: Cytotoxicity against human A549 cells by sulforhodamine B assay; format: functional, cell-based
# [2] = test system: KB; experiment: Cytotoxicity against multi-drug resistant variant vincristine resistant human KB cells expressing P-glycoprotein by sulforhodamine B assay; format: functional, cell-based
# [3] = test system: KB; experiment: Selectivity ratio of EC50 for human KB cells to EC50 for multi-drug resistant variant vincristine resistant human KB cells expressing P-glycoprotein by sulforhodamine B assay; format: functional
# [4] = test system: DU-145; experiment: Cytotoxicity against human DU145 cells by sulforhodamine B assay; format: functional, cell-based
# [5] = test system: KB; experiment: Cytotoxicity against human KB cells by sulforhodamine B assay; format: functional, cell-based
Structure (SMILES),EC50 [1] [µM],EC50 [2] [µM],Ratio EC50 [3],EC50 [4] [µM],EC50 [5] [µM]
"CCOc1ccc(C(=O)O[C@H]2[C@@H]3[C@@]4(C)CC[C@H](OC)[C@]35C(N(CC)C4)[C@@]23OCO[C@@]32C[C@H](OC)[C@H]3C[C@@H]5[C@@H]2[C@H]3OC)cc1 (single isomer, unassigned)",20,6.5,2.28,15.6,14.8
"CCN1C[C@]2(C)CC[C@H](OC)[C@@]34C1[C@@]1(OCO[C@@]15C[C@H](OC)[C@H]1C[C@@H]3[C@@H]5[C@H]1OC)[C@@H](OC(=O)c1ccc(C(=O)OC)cc1)[C@H]24 (single isomer, unassigned)",> 20,> 20,,> 20,> 20
CCN1C[C@]2(C)CC[C@H](OC)[C@@]34[C@@H]5C[C@H]6[C@H](OC)[C@@H]5[C@@]5(C[C@@H]6OC)OCO[C@@]5([C@@H](OC(=O)c5ccc(F)c(C)c5)[C@H]23)[C@@H]14,> 20,4.71,2.57,19.8,12.1
CCN1C[C@]2(C)CC[C@H](OC)[C@@]34[C@@H]5C[C@H]6[C@H](OC)[C@@H]5[C@@]5(C[C@@H]6OC)OCO[C@@]5([C@@H](OC(=O)c5ccc(Cl)cc5)[C@H]23)[C@@H]14,14.8,8.27,1.07,7.4,8.85
"CCN1C[C@]2(C)CC[C@H](OC)[C@@]34C1[C@@]1(OCO[C@@]15C[C@H](OC)[C@H]1C[C@@H]3[C@@H]5[C@H]1OC)[C@@H](OC(=O)c1cc(F)c(F)c(F)c1)[C@H]24 (single isomer, unassigned)",19.9,6.8,2.15,16.9,14.6
"CCN1C[C@]2(C)CC[C@H](OC)[C@@]34C1[C@@]1(OCO[C@@]15C[C@H](OC)[C@H]1C[C@@H]3[C@@H]5[C@H]1OC)[C@@H](OC(=O)c1cc([N+](=O)[O-])cc([N+](=O)[O-])c1)[C@H]24 (single isomer, unassigned)",> 20,20.3,,> 20,19.1
CCN1C[C@]2(C)CC[C@H](OC)[C@@]34[C@@H]5C[C@H]6[C@H](OC)[C@@H]5[C@@]5(C[C@@H]6OC)OCO[C@@]5(C(=O)[C@H]23)[C@@H]14 [PACININE],> 20,> 20,,> 20,> 20
"CCN1C[C@]2(C)CC[C@H](OC)[C@@]34C1[C@@]1(OCO[C@@]15C[C@H](OC)[C@H]1C[C@@H]3[C@@H]5[C@H]1OC)[C@@H](OC(=O)c1ccc([N+](=O)[O-])cc1)[C@H]24 (single isomer, unassigned)",> 20,17.7,,17.2,> 20
"CCN1C[C@]2(C)CC[C@H](OC)[C@@]34C1[C@@]1(OCO[C@@]15C[C@H](OC)[C@H]1C[C@@H]3[C@@H]5[C@H]1OC)[C@@H](OC(=O)c1ccc(SC(F)(F)F)cc1)[C@H]24 (single isomer, unassigned)",> 20,17.9,,16.6,> 20
CCN1C[C@]2(C)CC[C@H](OC)[C@@]34[C@@H]5C[C@H]6[C@H](O)[C@@H]5[C@@]5(C[C@@H]6OC)OCO[C@@]5(C(=O)[C@H]23)[C@@H]14 [YUNNADELPHININE],> 20,> 20,,> 20,> 20
"CCN1C[C@]2(C)CC[C@H](OC)[C@@]34C1[C@@]1(OCO[C@@]15C[C@H](OC)[C@H]1C[C@@H]3[C@@H]5[C@H]1OC)[C@@H](OC(=O)c1ccc(F)cc1)[C@H]24 (single isomer, unassigned)",> 20,15,,15.6,> 20
CCN1C[C@]2(C)CC[C@H](OC)[C@@]34[C@@H]5C[C@H]6[C@H](OC)[C@@H]5[C@](O)(C[C@@H]6OC)[C@](O)([C@@H](OC(=O)c5cccc(C(F)(F)F)c5)[C@H]23)[C@@H]14,> 20,> 20,,> 20,> 20
CCN1C[C@]2(C)CC[C@H](OC)[C@@]34[C@@H]5C[C@H]6[C@H](OC)[C@@H]5[C@@]5(C[C@@H]6OC)OCO[C@@]5([C@@H](OC(=O)c5ccc(OCc6ccccc6)cc5)[C@H]23)[C@@H]14,14.1,4.22,1.6,13.2,6.76
